Laboratory results reported in patent publication US10806794B2, “Protease inhibitors having enhanced features” (priority 2008, dated 2020).
Several values for one entry are separate records, joined by “and”; a condition that tells them apart may be missing. Equal values may be shown once. Read-outs that look alike come from different tables or passages of the source.

Tests used:
[1] = tested on: PBMCs; test: Toxicity in PBMCs cultured without virus (XTT)
Method: (§1) Fresh human peripheral blood mononuclear cells (PBMCs) obtained from a commercial source were purified following centrifugation using a Ficoll-Hypaque density gradient. Viable cells were induced to proliferate in the presence of PHA-P and recombinant human IL-2 for 72 hours. […] Cell supernatant containing HIV-1 viral was incubated for 90 minutes at 37° C. with a reaction mixture containing EGTA, Triton X-100, Tris (pH 7.4), DTT, MgCl2, poly rA, oligo dT, and tritiated thymidine triphosphate (TTP). Incorporation of TTP into DNA was monitored by spotting the reaction mixture onto a DEAE filter mat, followed by washes with 5% phosphate buffer, distilled water, and 70% ethanol, and subsequent drying of the mat. […] TI was calculated as TC50/EC50.

[2] = Metabolic stability in human liver microsomes; settings: human liver microsomes, 3 μM
Method: The human liver microsome-mediated biotransformation of PEG-PI compounds was determined by monitoring the loss of the substrate as a function of time. […] Test compounds (3 μM final concentration) were preincubated with pooled (male and female) human liver microsomes (0.5 mg/mL final protein concentration) in buffer (0.1M phosphate buffer, pH 7.4) at 37° C. Reactions were initiated by the addition of NADPH (1 mM final concentration), and allowed to continue for 0, 5, 15, 30, and 45 minutes. […] Sample supernatants are analyzed by liquid chromatography-tandem mass spectrometry.

[3] = biological target: T1, CYP3A4 (Homo sapiens (Human), UniProt P08684); test: CYP450 inhibition in human liver microsomes: CYP3A4;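 further: incubation at 37 °C started by adding 1 mM NADPH, with formation of the probe metabolite measured via LC-MS/MS or fluorescent detection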
T1 sequence (P08684 whole entry): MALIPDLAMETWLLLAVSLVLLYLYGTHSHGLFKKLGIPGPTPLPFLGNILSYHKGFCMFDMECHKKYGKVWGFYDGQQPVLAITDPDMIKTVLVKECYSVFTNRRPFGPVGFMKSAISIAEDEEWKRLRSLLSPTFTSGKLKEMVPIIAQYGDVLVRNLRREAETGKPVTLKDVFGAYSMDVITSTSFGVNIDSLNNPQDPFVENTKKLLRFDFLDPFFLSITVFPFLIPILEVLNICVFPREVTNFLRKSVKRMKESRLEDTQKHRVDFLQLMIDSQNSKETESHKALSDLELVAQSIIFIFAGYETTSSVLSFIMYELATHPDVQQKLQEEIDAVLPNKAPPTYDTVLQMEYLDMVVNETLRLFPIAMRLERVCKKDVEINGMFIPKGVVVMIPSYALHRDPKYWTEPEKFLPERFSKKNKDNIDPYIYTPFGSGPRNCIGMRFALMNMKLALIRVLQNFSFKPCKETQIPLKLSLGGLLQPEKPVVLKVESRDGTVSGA

[4] = tested on: HIV-1 HT/92/599; test: HIV-1 reverse transcriptase activity after infection of fresh human PBMCs; assay type: cell-based; settings: read-out: PBMC/HIV-1HT/92/599 EC50 ± SD; seven days, reverse transcriptase activity
Method: as §1, with “mat. Radioactivity was measured using a Wallac 1450 Microbeta Trilux liquid scintillation counter using Opti-Fluor O. Test compound-associated toxicity was measured in PBMCs cultured for seven days in the absence of virus using XTT reagent.” for “mat.”

[5] = tested on: human plasma proteins; test: Plasma protein binding by equilibrium dialysis, human plasma; assay type: in vitro ADME; settings: human plasma, 5 μM, fraction unbound
Method in brief: (§2)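 Two-hour dialysis at 37 °C separated plasma containing 5 μM test compound (0.5% DMSO) from plasma-free buffer; concentrations in both compartments were then determined by LC-MS/MS.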

[6] = tested on: human liver microsomal proteins; test: Microsomal protein binding by equilibrium dialysis; assay type: in vitro ADME; settings: human liver microsomes, 3 μM, fraction unbound
Method in brief: (§3)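 Compound at 3 μM final in buffer with or without human liver microsomes, dialysed to equilibrium at 37 °C. Both sides quantified by LC-MS/MS to derive fraction unbound (Fu).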

[7] = biological target: CYP2D6 (Homo sapiens (Human), UniProt P10635); test: Metabolic stability in CYP2D6-expressing Bactosomes; assay type: in vitro ADME; settings: 5 μM
Chain of CYP2D6 (P10635 whole entry, canonical isoform): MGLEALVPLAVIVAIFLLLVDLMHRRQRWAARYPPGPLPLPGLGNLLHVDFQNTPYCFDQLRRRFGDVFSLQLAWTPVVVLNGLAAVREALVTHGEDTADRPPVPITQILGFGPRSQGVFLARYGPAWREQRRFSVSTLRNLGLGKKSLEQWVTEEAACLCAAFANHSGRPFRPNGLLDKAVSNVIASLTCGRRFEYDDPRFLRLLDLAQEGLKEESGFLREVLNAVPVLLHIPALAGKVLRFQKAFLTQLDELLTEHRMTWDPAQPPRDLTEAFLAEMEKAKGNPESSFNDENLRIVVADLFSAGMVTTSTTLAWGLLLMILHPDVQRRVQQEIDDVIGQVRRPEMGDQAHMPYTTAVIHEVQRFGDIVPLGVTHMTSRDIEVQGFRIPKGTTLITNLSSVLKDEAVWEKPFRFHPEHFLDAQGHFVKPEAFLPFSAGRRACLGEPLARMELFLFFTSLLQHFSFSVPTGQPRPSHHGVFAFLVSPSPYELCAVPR
Method: (§4) Compounds were evaluated for their propensity to act as substrates of individual human cytochrome P450 enzymes using a bacterial membrane preparation co-expressing human NADPH-cytochrome P450 reductase with either human CYP3A4 or CYP2D6 (Bactosomes™ Cypex, Ltd., Dundee, UK). In vitro metabolism studies using Bactosomes™ expressing individual human CYP isoforms monitor the extent to which a test compound is metabolized by a single CYP450 enzyme and allow identification of the CYP isoforms that may be responsible for the metabolism of a test compound. Timecourse analyses of test molecules (5 μM) with CYP2D6- or CYP3A4-expressing Bactosomes™ (100 pmol/mL) are performed in buffer (0.1 M phosphate, pH 7.4) in a final reaction volume of 25 μL. […] Reactions are terminated by the addition of methanol (50 μL) containing internal standard at 0, 5, 15, 30, and 45 minutes.

[8] = tested on: human hepatocytes; test: Metabolic stability in cryopreserved human hepatocytes; settings: human hepatocytes, 3 uM, incubated up to one hour
Method: (§5) Metabolism of PI conjugates was investigated by monitoring the levels of unmetabolized parent compound following incubation with cryopreserved human or monkey hepatocytes. The use of whole hepatocytes rather than microsomes requires that the drugs cross the cell membrane to interact with intracellularly-localized metabolic enzymes, and thus provides the most relevant in vitro system for understanding overall metabolic stability of these compounds.
(§6) Test compounds (0.1 μM or 3 μM, as indicated) are incubated with cryopreserved human hepatocytes at a cell density of 0.5×10^6 viable cells/mL. […] Duplicate samples (50 μL) are removed from the incubation mixture at various timepoints up to four hours (for 0.1 μM test compound concentration), or one or two hours (for 3 μM test compound concentration), and the reaction is quenched by the addition of methanol containing internal standard (100 μL). The samples are centrifuged (2500 rpm at 4° C. for 20 min), and the supernatants at each time point pooled for cassette analysis by LC-MS/MS.

[9] = biological target: T1, CYP3A4; test: Metabolic stability in CYP3A4-expressing Bactosomes; assay type: in vitro ADME; settings: 5 μM
Method: as §4

[10] = tested on: HIV-1 virions; test: Infectivity of HIV-1 virions from treated cells on naive CEM-SS cells; assay type: cell-based
Method: In concert with p24 analysis, cell supernatants collected from cells exposed to test compounds at 8, 16, or 24 hours post-infection were used to infect naïve CEM-SS cells. Cell viability was measured six days post-infection as a measure of virus infectivity (Table 5).

[11] = tested on: CEM-SS cells; test: Pre-exposure assay: toxicity in CEM-SS cells
Method: (§7) The effects of pre- and post-infection PI treatment on CEM-SS toxicity were assessed. […] Cell toxicity was monitored six days after infection using XTT reagent. In the post-exposure assay, test compounds were added to cells 0, 24, 48, or 72 h after HIV-1 infection, and cell viability was measured six days post-infection.

[12] = tested on: HIV-1RF; test: Pre-exposure assay: CEM-SS cells treated before HIV-1RF infection, cell viability; assay type: cell-based; settings: for EC50: Human immunodeficiency virus 1, CEM-SS
Method: as §7

[13] = tested on: CEM-SS cells; test: Post-exposure assay: toxicity in CEM-SS cells
Method: as §7

[14] = tested on: HIV-1RF; test: p24 levels after single high MOI HIV-1RF infection of CEM-SS cells, time of addition; assay type: cell-based; settings: 1 μM
Method: The cytoprotective effect against HIV of the PEG-protease inhibitor conjugates was evaluated during a single round of high multiplicity of infection (“MOI”) HIV-1 infection in CEM-SS cells. CEM-SS cells were incubated for one hour with a single high MOI dose of HIV-1RF. Cells were washed to remove free virus, then test compounds were added to cells at 0, 2, 4, 6, 8, 16, or 24 hours after HIV-1 infection. To monitor viral replication, cell supernatants were analyzed at 30 hours post-infection for levels of the HIV capsid protein p24 (FIG. 1). […] Nevirapine inhibited viral replication at 1 μM when added to cells up to four hours post-infection, and at 10 μM when added up to eight hours post-infection.

[15] = tested on: HIV-1RF; test: Post-exposure assay: compounds added after HIV-1 infection of CEM-SS cells, cell viability; assay type: cell-based; settings: Human immunodeficiency virus 1, CEM-SS
Method: as §7

[16] = tested on: CEM-SS cells; settings: absence of viral infection
Method: To evaluate whether conjugated protease inhibitors retain the ability to protect against HIV-1 infection, CEM-SS cells infected with the RF strain of HIV-1 were treated with test compounds for six days, and then cell viability was monitored using the tetrazolium dye XTT. […] A value for Therapeutic Index (TI) was calculated as TC50/EC50.

[17] = biological target: recombinant HIV-1 protease (Human immunodeficiency virus type 1 group M subtype B (isolate HXB2) (HIV-1), UniProt P04585); test: Enzyme inhibition of purified HIV-1 protease (SensoLyte 520 HIV-Protease Assay Kit); assay type: biochemical; settings: read-out: IC50 ± SD
Method: Protease inhibitors (PI) are used to treat HIV infection by preventing viral assembly and maturation through the inhibition of HIV-1 protease activity. Biochemical assays were performed to evaluate the potential of PEG-PI conjugates to inhibit HIV-1 protease activity, relative to their respective PI parent molecules. Activity assays were performed at using the SensoLyte 520 HIV-Protease Assay Kit (Anaspec Inc., San Jose, Calif.) and recombinant HIV-1 protease. Protease activity was monitored by the formation of a fluorescent reporter product generated during HIV-1 protease-mediated digestion of a quenched, fluorimetric substrate containing the p17/p24 Pr^gag cleavage site.

[18] = Plasma protein binding by equilibrium dialysis, human plasma; assay type: in vitro ADME; settings: human plasma, 5 μM, fraction unbound; read-out: Plasma Protein Binding Fu ± SD
Method in brief: as §2

[19] = Microsomal protein binding by equilibrium dialysis; assay type: in vitro ADME; settings: human liver microsomes, read-out: Microsomal Protein Binding Fu ± SD
Method in brief: as §3

[20] = Metabolic stability in cryopreserved human hepatocytes; settings: human, hepatocytes
Method: as §5, §6

COCCOCCOCCOC(=O)N[C@@H](C(=O)NC(Cc1ccccc1)[C@@H](O)CN(Cc1ccc(-c2ccccn2)cc1)NC(=O)[C@H](NC(=O)OCCOCCOCCOC)C(C)(C)C)C(C)(C)C (stereo partly drawn) [di-mPEG3-Atazanavir]
PBMC TC50 ± SD [1]: 146000 nM
CLint ± SEM [2]: 190 ± 18.3 μL/min/mg protein
t1/2 [2]: 7.31 min
IC50 ([3]; read-out: CYP3A4 IC50 Midazolam, probe substrate midazolam): > 50000 nM
IC50 ([3]; read-out: CYP3A4 IC50 Testosterone, probe substrate testosterone): 23400 nM
EC50 [4]: 390 ± 60 nM
Plasma Protein Binding Fu ± SD [5]: 0.376 ± 0.00639
Microsomal Protein Binding Fu ± SD [6]: highly unbound
2D6 t1/2 ± SEM [7]: 2.18 ± 0.808 h
CLint ± SEM [8]: 3.46 ± 0.896 μL/min/10^6 cells
3A4 t1/2 ± SEM [9]: 1.6 ± 0.457 h

Cc1ccnc2c1NC(=O)c1cccnc1N2C1CC1 [Nevirapine]
Percent Infectivity of HIV-1 Virions in comparison to virus-alone control ([10]; 0.1 μM, added 8 h post-infection): 100.0%
Percent Infectivity of HIV-1 Virions in comparison to virus-alone control ([10]; 0.1 μM, added 16 h post-infection): 117.0%
Percent Infectivity of HIV-1 Virions in comparison to virus-alone control ([10]; 0.1 μM, added 24 h post-infection): 128.0%
Percent Infectivity of HIV-1 Virions in comparison to virus-alone control ([10]; 1 μM, added 8 h post-infection): 100.0%
Percent Infectivity of HIV-1 Virions in comparison to virus-alone control ([10]; 1 μM, added 16 h post-infection): 100.0%
Percent Infectivity of HIV-1 Virions in comparison to virus-alone control ([10]; 10 μM, added 8 h post-infection): 10.0%
Percent Infectivity of HIV-1 Virions in comparison to virus-alone control ([10]; 10 μM, added 24 h post-infection): 177.8%
TC50 ([11]; exposure 2 h pre-infection): >1000 nM
TC50 ([11]; exposure 8 h pre-infection): >1000 nM
TC50 ([11]; exposure 24 h pre-infection): >1000 nM
EC50 ([12]; 2 h): 470 nM
EC50 ([12]; 8 h): 200 nM
EC50 ([12]; 24 h): 640 nM
EC50 values after pre-treatment of cells ([12]; in words): sub-micromolar
TC50 ([13]; drug addition 0 h post-infection): >1000 nM
TC50 ([13]; drug addition 24 h post-infection): >1000 nM
TC50 ([13]; drug addition 48 h post-infection): >1000 nM
TC50 ([13]; drug addition 72 h post-infection): >1000 nM
time of addition up to which antiviral activity (reduced p24) was seen [14]: up to four
EC50 ([15]; 0 h): 5 nM
EC50 ([15]; 24 h): 10 nM
EC50 ([15]; 48 h): 50 nM
EC50 ([15]; 72 h): 200 nM

CCC[C@@]1(CCc2ccccc2)CC(O)=C([C@H](CC)c2cccc(NS(=O)(=O)c3ccc(C(F)(F)F)cn3)c2)C(=O)O1 [Tipranavir, reference compound]
CEM-SS TC50 ± SD [16]: 30600 nM and 40700 nM
IC50 [17]: 7.2 nM and 1.96 nM
fraction unbound at 2 h, 5 μM [18]: 0.00866 ± 0.0013
fraction unbound at 3 μM [19]: 0.302 ± 0.0853
hepatocyte CLint at 3 μM [20]: 0.111 ± 0.643 µL/min/1e6 cells
